Assay results from article PMC3961306, “Comparison of the Cancer Gene Targeting and Biochemical Selectivities of All Targeted Kinase Inhibitors Approved for Clinical Use” (PLoS ONE, 2014).

Assays:
Assay in all cases: Kinase profiling in a biochemical assay panel (mobility shift assays and ELISA), %-inhibition at 1 μM; selectivity entropy
[1] = biological target: panel of more than 300 wild-type and mutant kinases (313 kinase panel) (Homo sapiens, UniProt Q8IY84)
[2] = biological target: panel of more than 300 wild-type and mutant kinases (313 kinase panel) (Homo sapiens, UniProt Q13233); details: kinase MAP3K1; compound at 1 μM
Chain of panel of more than 300 wild-type and mutant kinases (313 kinase panel) (Homo sapiens, UniProt Q13233) (Q13233 whole entry, change not shown): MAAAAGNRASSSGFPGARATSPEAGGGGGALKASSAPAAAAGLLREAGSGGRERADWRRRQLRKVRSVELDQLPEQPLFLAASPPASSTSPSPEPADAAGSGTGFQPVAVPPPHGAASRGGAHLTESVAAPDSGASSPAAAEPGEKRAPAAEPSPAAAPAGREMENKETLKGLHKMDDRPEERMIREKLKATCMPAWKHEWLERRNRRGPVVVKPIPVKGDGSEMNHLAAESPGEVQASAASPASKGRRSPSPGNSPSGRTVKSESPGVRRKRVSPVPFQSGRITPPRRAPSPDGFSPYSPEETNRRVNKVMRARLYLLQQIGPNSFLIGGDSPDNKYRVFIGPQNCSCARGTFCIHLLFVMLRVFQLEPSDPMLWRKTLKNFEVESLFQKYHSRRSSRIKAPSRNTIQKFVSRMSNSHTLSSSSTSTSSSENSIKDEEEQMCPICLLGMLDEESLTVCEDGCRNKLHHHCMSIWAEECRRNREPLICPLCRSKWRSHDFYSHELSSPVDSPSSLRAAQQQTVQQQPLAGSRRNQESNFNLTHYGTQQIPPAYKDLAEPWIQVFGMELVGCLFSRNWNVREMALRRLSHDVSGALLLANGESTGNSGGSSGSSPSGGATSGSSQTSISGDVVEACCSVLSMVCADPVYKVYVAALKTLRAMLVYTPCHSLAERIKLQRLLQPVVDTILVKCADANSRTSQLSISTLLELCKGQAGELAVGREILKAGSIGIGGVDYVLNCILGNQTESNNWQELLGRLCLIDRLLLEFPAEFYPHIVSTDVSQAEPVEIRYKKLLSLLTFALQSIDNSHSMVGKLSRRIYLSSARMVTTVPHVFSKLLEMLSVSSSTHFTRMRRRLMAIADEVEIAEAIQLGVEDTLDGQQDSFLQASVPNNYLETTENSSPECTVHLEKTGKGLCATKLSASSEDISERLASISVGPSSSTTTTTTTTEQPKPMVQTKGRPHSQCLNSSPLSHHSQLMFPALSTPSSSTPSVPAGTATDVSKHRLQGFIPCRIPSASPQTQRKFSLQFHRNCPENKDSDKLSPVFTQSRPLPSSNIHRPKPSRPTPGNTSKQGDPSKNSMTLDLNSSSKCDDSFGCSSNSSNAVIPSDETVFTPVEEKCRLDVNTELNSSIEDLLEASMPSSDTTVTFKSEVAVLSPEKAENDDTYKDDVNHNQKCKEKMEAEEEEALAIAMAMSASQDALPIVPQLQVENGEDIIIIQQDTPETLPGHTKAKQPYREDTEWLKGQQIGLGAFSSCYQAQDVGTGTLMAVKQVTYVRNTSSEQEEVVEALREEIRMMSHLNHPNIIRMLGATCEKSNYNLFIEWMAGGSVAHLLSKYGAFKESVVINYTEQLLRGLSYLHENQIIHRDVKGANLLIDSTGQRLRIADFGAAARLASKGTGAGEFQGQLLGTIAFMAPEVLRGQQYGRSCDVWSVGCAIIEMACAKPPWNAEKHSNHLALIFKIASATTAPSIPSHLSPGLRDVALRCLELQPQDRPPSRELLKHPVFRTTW

[3] = biological target: panel of more than 300 wild-type and mutant kinases (313 kinase panel) (Homo sapiens, UniProt O75582); details: kinase MSK1; 1 μM
[4] = biological target: panel of more than 300 wild-type and mutant kinases (313 kinase panel) (Homo sapiens, UniProt Q9UM73); details: kinase ALK; 1 μM compound
[5] = biological target: T1, panel of more than 300 wild-type and mutant kinases (313 kinase panel) (Homo sapiens, UniProt Q8TDC3); details: kinase BRSK1; 1 μM compound
T1 sequence (Q8TDC3 1-778): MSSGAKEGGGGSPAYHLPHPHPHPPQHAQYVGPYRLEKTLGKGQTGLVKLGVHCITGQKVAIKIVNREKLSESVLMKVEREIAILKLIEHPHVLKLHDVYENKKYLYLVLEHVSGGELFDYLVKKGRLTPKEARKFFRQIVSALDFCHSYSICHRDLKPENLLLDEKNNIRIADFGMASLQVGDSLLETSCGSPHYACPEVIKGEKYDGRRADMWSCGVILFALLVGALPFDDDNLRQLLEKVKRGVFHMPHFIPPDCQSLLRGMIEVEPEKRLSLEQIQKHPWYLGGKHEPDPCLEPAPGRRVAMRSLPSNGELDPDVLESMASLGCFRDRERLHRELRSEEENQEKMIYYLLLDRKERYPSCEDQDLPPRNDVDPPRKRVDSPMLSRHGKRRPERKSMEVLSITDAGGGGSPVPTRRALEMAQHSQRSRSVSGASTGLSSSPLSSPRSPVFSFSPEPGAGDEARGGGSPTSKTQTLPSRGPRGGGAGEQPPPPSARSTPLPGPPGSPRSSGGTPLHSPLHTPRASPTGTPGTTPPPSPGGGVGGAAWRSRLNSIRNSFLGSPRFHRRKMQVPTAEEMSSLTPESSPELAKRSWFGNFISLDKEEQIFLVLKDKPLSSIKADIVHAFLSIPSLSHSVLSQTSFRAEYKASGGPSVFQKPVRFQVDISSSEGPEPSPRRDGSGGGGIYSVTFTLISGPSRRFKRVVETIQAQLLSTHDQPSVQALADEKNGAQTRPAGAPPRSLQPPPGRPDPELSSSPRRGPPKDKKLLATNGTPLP

[6] = biological target: panel of more than 300 wild-type and mutant kinases (313 kinase panel) (Homo sapiens, UniProt Q05397); details: kinase FAK; compound at 1 μM
[7] = biological target: panel of more than 300 wild-type and mutant kinases (313 kinase panel) (Homo sapiens, UniProt P11362); details: kinase FGFR1; compound at 1 μM
Chain of panel of more than 300 wild-type and mutant kinases (313 kinase panel) (Homo sapiens, UniProt P11362) (P11362 22-822, change not shown): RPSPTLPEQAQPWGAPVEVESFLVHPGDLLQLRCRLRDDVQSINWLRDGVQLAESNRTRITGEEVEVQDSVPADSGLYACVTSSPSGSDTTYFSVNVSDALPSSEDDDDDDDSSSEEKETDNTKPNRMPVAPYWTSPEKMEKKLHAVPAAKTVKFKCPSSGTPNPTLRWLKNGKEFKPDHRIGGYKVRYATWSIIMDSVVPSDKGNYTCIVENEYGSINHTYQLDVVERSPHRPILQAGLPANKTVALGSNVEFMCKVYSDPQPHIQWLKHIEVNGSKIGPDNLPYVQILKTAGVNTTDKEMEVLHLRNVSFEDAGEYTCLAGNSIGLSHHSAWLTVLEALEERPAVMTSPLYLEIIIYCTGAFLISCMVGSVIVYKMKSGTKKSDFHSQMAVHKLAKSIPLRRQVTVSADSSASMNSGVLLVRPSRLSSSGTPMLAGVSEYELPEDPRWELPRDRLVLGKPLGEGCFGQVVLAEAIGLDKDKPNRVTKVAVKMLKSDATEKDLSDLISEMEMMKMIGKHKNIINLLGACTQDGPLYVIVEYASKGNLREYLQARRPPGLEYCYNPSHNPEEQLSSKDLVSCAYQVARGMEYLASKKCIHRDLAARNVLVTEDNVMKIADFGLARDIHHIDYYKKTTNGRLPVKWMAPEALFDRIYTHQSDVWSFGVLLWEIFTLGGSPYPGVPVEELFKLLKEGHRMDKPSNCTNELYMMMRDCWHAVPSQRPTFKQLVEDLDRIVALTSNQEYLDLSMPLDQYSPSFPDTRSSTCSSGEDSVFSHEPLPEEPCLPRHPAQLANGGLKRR

[8] = biological target: T2, panel of more than 300 wild-type and mutant kinases (313 kinase panel) (Homo sapiens, UniProt Q12866); details: kinase MER; compound at 1 μM
T2 sequence (Q12866 21-999): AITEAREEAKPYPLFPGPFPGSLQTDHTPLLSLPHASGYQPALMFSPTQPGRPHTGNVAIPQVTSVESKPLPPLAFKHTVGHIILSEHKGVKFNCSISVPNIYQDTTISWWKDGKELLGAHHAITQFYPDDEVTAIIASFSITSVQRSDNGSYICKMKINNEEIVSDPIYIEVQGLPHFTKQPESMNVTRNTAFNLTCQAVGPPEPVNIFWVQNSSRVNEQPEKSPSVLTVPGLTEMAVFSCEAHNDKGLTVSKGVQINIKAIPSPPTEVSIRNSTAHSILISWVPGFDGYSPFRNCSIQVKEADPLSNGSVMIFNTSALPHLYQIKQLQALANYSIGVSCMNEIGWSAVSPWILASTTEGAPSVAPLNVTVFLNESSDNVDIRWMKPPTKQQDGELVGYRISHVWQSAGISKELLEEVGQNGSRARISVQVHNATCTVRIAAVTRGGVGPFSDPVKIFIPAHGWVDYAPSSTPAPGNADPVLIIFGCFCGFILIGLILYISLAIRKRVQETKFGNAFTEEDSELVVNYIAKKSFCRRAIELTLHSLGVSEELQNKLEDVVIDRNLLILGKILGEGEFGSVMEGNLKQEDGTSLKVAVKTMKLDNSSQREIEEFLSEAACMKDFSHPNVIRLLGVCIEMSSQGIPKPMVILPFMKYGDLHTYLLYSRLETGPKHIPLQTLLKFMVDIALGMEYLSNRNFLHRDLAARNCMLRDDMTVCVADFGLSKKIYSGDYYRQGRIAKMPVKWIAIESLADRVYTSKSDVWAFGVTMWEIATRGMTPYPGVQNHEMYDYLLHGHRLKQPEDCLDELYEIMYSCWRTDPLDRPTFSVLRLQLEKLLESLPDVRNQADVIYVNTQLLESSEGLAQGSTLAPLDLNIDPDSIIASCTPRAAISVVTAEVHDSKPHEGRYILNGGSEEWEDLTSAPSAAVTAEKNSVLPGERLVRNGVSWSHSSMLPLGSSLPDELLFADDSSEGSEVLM

| SMILES | %-inhibition of MGC42105 ([1]; 1 µM) | %-inhibition of MAP3K1 [2] | %-inhibition of MSK1 [3] | %-inhibition, ALK [4] | %-inhibition, BRSK1 [5] | %-inhibition of FAK [6] | %-inhibition of FGFR1 [7] | %-inhibition of MER [8] | %-inhibition of MGC42105 ([1]; kinase MGC42105, 1 μM) |
| --- | --- | --- | --- | --- | --- | --- | --- | --- | --- |
| Cc1cn(-c2cc(NC(=O)c3ccc(C)c(Nc4nccc(-c5cccnc5)n4)c3)cc(C(F)(F)F)c2)cn1 [nilotinib] | -48% | -18% | 2.48% | -8% | 0.801% | 3.25% | -29% | -46% | – |
| COc1cc2nccc(Oc3ccc(NC(=O)C4(C(=O)Nc5ccc(F)cc5)CC4)cc3)c2cc1OC [cabozantinib] | – | 36% | -2% | 49% | 3.24% | 10% | 16% | 100% | -8% |
